Series [1] deals with Voltage-gated inwardly rectifying potassium channel KCNH2 (Homo sapiens, UniProt Q12809). The experiment in a line: Displacement of [3H]dofetilide from human ERG expressed in CHO cells by patch clamp method.
Series [2] concerns the target T1, Melanocyte-stimulating hormone receptor (Homo sapiens, UniProt Q01726). As to the kind of experiment: Agonist activity at human recombinant MC1 receptor expressed in HEK293 cells assessed as cAMP accumulation by enzyme fragment complementation assay relative to alpha melanocyte-stimulating hormone. Format: functional, cell-based.
Target sequence in this assay (Q01726 whole entry, looked up, the tested form may be a part): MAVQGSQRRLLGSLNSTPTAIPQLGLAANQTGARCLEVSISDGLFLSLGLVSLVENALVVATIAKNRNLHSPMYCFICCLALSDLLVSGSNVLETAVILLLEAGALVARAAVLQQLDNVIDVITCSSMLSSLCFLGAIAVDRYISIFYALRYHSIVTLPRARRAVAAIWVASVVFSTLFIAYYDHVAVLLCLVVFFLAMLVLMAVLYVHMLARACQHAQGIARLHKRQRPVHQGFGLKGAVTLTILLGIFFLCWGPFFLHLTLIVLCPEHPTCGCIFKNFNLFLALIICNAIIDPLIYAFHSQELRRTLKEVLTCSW
The target of series [3] is T2, Melanocortin receptor 4 (Homo sapiens, UniProt P32245). The experiment in a line: Displacement of [125I]-MT-II from human recombinant MC4 receptor expressed in CHO cells by scintillation counting. Background: Loss of bound radioactivity is the signal in a displacement assay; it reports binding, not function.
T2 sequence (P32245 whole entry): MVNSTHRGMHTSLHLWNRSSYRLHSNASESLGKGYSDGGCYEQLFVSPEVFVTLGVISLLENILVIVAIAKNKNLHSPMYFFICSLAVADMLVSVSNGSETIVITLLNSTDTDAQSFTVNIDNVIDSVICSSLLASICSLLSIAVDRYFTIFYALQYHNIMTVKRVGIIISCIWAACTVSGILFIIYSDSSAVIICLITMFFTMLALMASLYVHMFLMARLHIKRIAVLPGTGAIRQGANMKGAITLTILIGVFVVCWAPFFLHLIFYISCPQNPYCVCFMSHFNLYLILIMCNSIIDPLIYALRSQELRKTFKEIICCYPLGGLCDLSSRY
The target in series [4] is T3, Melanocortin receptor 5 (Homo sapiens, UniProt P33032). As to the kind of experiment: Agonist activity at human recombinant MC5 receptor expressed in HEK293 cells assessed as cAMP accumulation by beta lactamase reporter gene assay. The class given is functional, cell-based.
T3 sequence (P33032 whole entry, the tested form may be a part): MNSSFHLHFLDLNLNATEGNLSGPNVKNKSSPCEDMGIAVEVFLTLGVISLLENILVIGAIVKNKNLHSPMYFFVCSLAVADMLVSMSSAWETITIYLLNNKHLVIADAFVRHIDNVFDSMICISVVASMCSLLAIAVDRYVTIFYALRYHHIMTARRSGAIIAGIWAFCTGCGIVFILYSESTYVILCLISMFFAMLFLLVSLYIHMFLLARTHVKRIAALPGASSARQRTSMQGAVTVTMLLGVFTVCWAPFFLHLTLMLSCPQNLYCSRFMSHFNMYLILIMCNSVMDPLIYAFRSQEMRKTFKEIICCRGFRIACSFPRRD
Series [5] deals with T4, Melanocortin receptor 3 (Homo sapiens, UniProt P41968). As to the kind of experiment: Agonist activity at human recombinant MC3 receptor expressed in CHO cells assessed as cAMP accumulation by enzyme fragment complementation assay relative to […]. The class given is functional, cell-based.
T4 sequence (P41968 whole entry, the tested form may be a part): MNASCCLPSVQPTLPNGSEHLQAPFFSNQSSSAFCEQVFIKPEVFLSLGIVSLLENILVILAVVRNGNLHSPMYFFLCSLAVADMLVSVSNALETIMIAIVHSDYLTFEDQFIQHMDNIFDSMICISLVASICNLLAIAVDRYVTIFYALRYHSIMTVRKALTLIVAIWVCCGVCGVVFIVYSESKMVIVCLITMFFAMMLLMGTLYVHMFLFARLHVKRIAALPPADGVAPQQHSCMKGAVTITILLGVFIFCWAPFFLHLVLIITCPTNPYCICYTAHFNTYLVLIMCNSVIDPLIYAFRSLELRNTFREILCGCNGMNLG
Series [6] in a line: Intrinsic clearance in human liver microsome measured per mg of protein. Format: ADME. As to conditions: liver microsomes. (In general: Liver microsomes are vesicles of endoplasmic reticulum, rich in cytochrome P450 enzymes.)
Series [7] is described as follows: Lipophilicity, log D at pH 7.4. As to conditions: buffer. Format: physicochemical.
For series [8], the target named is T2, Melanocortin receptor 4. The experiment in a line: Agonist activity at human recombinant MC4 receptor expressed in CHO cells by cAMP responsive beta lactamase reporter gene assay. Format: functional, cell-based. On the technique in general: Reporter assays use an easily measured gene product as a stand-in for the process of interest.
Series [9] deals with T4, Melanocortin receptor 3. As to the kind of experiment: Agonist activity at human recombinant MC3 receptor expressed in CHO cells assessed as cAMP accumulation by enzyme fragment complementation assay. Format: functional, cell-based.
Series [10] deals with T3, Melanocortin receptor 5. As to the kind of experiment: Agonist activity at human recombinant MC5 receptor expressed in HEK293 cells assessed as cAMP accumulation by beta lactamase reporter gene assay relative to alpha melanocyte-stimulating hormone. Format: functional, cell-based.
The target of series [11] is T1, Melanocyte-stimulating hormone receptor. The experiment in a line: Agonist activity at human recombinant MC1 receptor expressed in HEK293 cells assessed as cAMP accumulation by enzyme fragment complementation assay. Format: functional, cell-based.
Target sequence in this assay (Q01726 whole entry, the tested form may be a part): as the sequence (Q01726 whole entry, looked up, the tested form may be a part) above

Sequence of Voltage-gated inwardly rectifying potassium channel KCNH2 (Q12809 whole entry, the tested form may be a part): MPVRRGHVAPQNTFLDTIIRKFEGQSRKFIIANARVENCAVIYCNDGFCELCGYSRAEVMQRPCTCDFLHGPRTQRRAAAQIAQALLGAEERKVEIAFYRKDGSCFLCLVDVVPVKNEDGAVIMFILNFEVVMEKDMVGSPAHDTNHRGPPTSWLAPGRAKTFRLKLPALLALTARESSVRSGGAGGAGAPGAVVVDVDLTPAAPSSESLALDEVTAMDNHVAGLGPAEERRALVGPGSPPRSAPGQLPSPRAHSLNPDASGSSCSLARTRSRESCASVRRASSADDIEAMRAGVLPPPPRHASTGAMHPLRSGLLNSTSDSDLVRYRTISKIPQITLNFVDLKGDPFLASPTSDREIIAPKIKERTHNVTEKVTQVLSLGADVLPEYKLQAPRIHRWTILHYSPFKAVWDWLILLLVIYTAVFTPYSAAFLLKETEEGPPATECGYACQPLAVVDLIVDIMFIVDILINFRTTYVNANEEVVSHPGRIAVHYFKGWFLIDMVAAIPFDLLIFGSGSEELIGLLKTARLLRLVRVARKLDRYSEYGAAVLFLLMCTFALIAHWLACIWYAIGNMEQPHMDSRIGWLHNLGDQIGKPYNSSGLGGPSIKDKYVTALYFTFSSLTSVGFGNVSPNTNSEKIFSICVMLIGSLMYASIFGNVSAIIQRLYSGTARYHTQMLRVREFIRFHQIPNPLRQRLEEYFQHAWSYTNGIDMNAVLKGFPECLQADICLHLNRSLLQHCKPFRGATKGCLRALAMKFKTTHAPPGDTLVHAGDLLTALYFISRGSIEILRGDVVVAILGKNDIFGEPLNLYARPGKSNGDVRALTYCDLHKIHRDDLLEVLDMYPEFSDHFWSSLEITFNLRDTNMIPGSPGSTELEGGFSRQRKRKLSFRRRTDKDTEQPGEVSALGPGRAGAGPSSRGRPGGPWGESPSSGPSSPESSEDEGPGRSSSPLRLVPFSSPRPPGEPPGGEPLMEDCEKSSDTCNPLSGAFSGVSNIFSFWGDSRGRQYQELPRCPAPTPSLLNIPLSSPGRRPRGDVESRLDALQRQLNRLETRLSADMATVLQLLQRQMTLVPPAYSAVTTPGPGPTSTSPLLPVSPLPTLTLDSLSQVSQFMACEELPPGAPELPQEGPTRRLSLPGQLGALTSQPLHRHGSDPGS

For orientation: Ki means a dissociation constant, usually derived from enzyme kinetics or from competition with a known ligand. By Emax is commonly meant the greatest response seen or fitted, relative to the assay's reference. What is called EC50 is the concentration giving half of the maximal effect. As usually defined, the microsomal CLint is a measure of how fast metabolising enzymes remove a compound, apart from limits set by blood flow. A higher microsomal CLint goes with rapid turnover. As usually defined, the logD is the decadic logarithm of the distribution of all forms, ionised or not, between an organic phase and buffer at a given pH. High values mean a more lipophilic compound, low ones a more hydrophilic compound. For `CC(C)N1C[C@@H](C(=O)N2C[C@@H](C)[C@](O)(c3ccccc3)[C@@H](C)C2)[C@H](c2ccc(F)cc2F)C1`, the inhibitory constant (Ki) was over 7880 nM in series [1] and 114 nM at Melanocortin receptor 4 [3]. Besides, the maximal effect (Emax) in series [2] was 100%; at Melanocortin receptor 3 [5], 72%; at Melanocortin receptor 5 [10], 103%. For the same compound, the half-maximal effective concentration (EC50) was found to be 3640 nM at Melanocortin receptor 5 [4], 69 nM at Melanocortin receptor 4 [8], 11600 nM at Melanocortin receptor 3 [9] and 750 nM in series [11]. In addition, the microsomal CLint in [6] was found to be 128 µL/min/mg. In addition, the logD in series [7] came to 3.2.
On to `C[C@@H]1CN(C(=O)[C@H]2CN(c3cccnn3)C[C@@H]2c2ccc(F)cc2F)C[C@H](C)[C@@]1(O)c1ccccn1`, for which the Emax in [2] is 67%; at Melanocortin receptor 3 [5], 75%. In addition, the Ki on Melanocortin receptor 4 [3] is 52 nM. Moreover, the microsomal CLint in [6] was over 440 µL/min/mg. Further, the logD in [7] is 3. For the same compound, the figures for the EC50 (at Melanocortin receptor 4 [8]; at Melanocortin receptor 3 [9]; in series [11]) were 7 nM, 3660 nM and 1850 nM, respectively.
`C[C@@H]1CN(C(=O)[C@@H]2CN(C(C)(C)C)C[C@H]2c2ccc(F)cc2F)C[C@H](C)[C@@]1(O)c1ccc(F)cc1F`: the maximal effect (Emax) in series [2] was 93%; on Melanocortin receptor 5 [10] it was 84%. The Ki on Melanocortin receptor 4 [3] was 176 nM. For the same compound, the figures for the EC50 (on Melanocortin receptor 4 [8]; at Melanocortin receptor 3 [9]; in series [11]) were 62 nM, 10700 nM and 6570 nM, respectively.
For `CCCCN1C[C@H](C(=O)N2C[C@@H](C)[C@](O)(c3ccccc3)[C@@H](C)C2)[C@@H](c2ccc(F)cc2F)C1`, the Emax (in series [2]; on Melanocortin receptor 5 [10]) was 72% in each case. Further, the Ki on Melanocortin receptor 4 [3] was found to be 233 nM. The EC50 is 1430 nM on Melanocortin receptor 5 [4], 105 nM at Melanocortin receptor 4 [8], over 5720 nM at Melanocortin receptor 3 [9] and 1100 nM in [11].
For the compound `C[C@@H]1CN(C(=O)[C@@H]2CN(C(C)(C)C)C[C@H]2c2ccc(F)cc2F)C[C@H](C)[C@@]1(O)c1ccc(Cl)cc1`, the values for the Ki (in [1]; at Melanocortin receptor 4 [3]) were over 10000 nM and 48 nM, respectively. The EC50 is 5190 nM at Melanocortin receptor 5 [4], 30 nM on Melanocortin receptor 4 [8], 3680 nM on Melanocortin receptor 3 [9] and over 5880 nM in [11]. Besides, the Emax on Melanocortin receptor 3 [5] is 75%; on Melanocortin receptor 5 [10], 107%. Moreover, in series [6], the microsomal CLint came out at 16 µL/min/mg. For the same compound, the pH-dependent lipophilicity (logD) in series [7] was determined as 3.9.
With `C[C@@H]1CN(C(=O)[C@@H]2CN(C(C)(C)C)C[C@H]2c2ccc(F)cc2F)C[C@H](C)[C@@]1(O)c1ccccn1`, the Ki in [1] was 5840 nM; at Melanocortin receptor 4 [3] it was 350 nM. Besides, the results for the Emax (in [2]; on Melanocortin receptor 5 [10]) were 97% and 100%, respectively. Further, the EC50 at Melanocortin receptor 4 [8] was 46 nM; on Melanocortin receptor 3 [9], over 33300 nM; in series [11], 1170 nM.
As to `C[C@@H]1CN(C(=O)[C@H]2CN(C3CCC3)C[C@@H]2c2ccc(F)cc2F)C[C@H](C)[C@@]1(O)c1ccccc1`, the maximal response (Emax) in series [2] turned out to be 79%; on Melanocortin receptor 3 [5], 81%. The Ki at Melanocortin receptor 4 [3] was 62 nM. The EC50 came to 32 nM at Melanocortin receptor 4 [8], 500 nM on Melanocortin receptor 3 [9] and 350 nM in [11].
With `C[C@@H]1CN(C(=O)[C@@H]2CN(C(C)(C)C)C[C@H]2c2ccc(F)cc2F)C[C@H](C)[C@@]1(O)c1c(F)cccc1F`, the inhibitory constant (Ki) amounted to 5000 nM in series [1] and 99 nM on Melanocortin receptor 4 [3]. The 50% effective concentration (EC50) on Melanocortin receptor 5 [4] was over 5810 nM; at Melanocortin receptor 4 [8] it was 45 nM; on Melanocortin receptor 3 [9], 4570 nM; in series [11] it was over 5010 nM. In addition, the Emax on Melanocortin receptor 3 [5] is 76%.
As for `C[C@@H]1CN(C(=O)[C@H]2CN(c3cccnc3)C[C@@H]2c2ccc(F)cc2F)C[C@H](C)[C@@]1(O)c1ccccc1`, the results for the Ki (in series [1]; on Melanocortin receptor 4 [3]) were 5070 nM and 50 nM, respectively. Further, the Emax at Melanocortin receptor 3 [5] came to 90%. In addition, the results for the EC50 (on Melanocortin receptor 4 [8]; on Melanocortin receptor 3 [9]; in series [11]) were 5 nM, 65 nM and over 8220 nM, respectively.
For the compound `CCCC[C@H](NC(C)=O)C(=O)N[C@H]1CC(=O)NCCCC[C@@H](C(N)=O)NC(=O)[C@H](Cc2c[nH]c3ccccc23)NC(=O)[C@H](CCCNC(=N)N)NC(=O)C(Cc2ccccc2)NC(=O)[C@H](CC2=NC=NC2)NC1=O` (single isomer, unassigned), the Emax in series [2] turned out to be 98%; on Melanocortin receptor 3 [5], 87%; on Melanocortin receptor 5 [10], 61%.
Regarding `C[C@@H]1CN(C(=O)[C@H]2CN(C3CCOCC3)C[C@@H]2c2ccc(F)cc2F)C[C@H](C)[C@@]1(O)c1ccccc1`, the Ki is over 5270 nM in [1] and 36 nM at Melanocortin receptor 4 [3]. Also, the EC50 was over 20000 nM on Melanocortin receptor 5 [4], 18 nM at Melanocortin receptor 4 [8], over 14500 nM at Melanocortin receptor 3 [9] and over 11900 nM in series [11]. For the same compound, in [6], the microsomal CLint was determined as 151 µL/min/mg. The same compound yielded a logD in series [7] of 3.1.
For `C[C@@H]1CN(C(=O)[C@@H]2CNC[C@H]2c2ccc(F)cc2F)C[C@H](C)[C@@]1(O)c1ccccc1`, the Ki came to 6650 nM in series [1] and 264 nM on Melanocortin receptor 4 [3]. The half-maximal effective concentration (EC50) is over 20000 nM at Melanocortin receptor 5 [4], 462 nM at Melanocortin receptor 4 [8], over 25200 nM on Melanocortin receptor 3 [9] and over 8740 nM in series [11].
As for `CCC[C@@]1(O)[C@H](C)CN(C(=O)[C@H]2CN(c3cccnn3)C[C@@H]2c2ccc(F)cc2F)C[C@@H]1C`, the Emax in series [2] is 104%; on Melanocortin receptor 3 [5] it was 79%. Also, the Ki at Melanocortin receptor 4 [3] was 56 nM. For the same compound, the microsomal CLint in series [6] is over 440 µL/min/mg. In addition, in series [7], the logD came out at 2.8. In addition, the results for the EC50 (on Melanocortin receptor 4 [8]; at Melanocortin receptor 3 [9]; in [11]) were 21 nM, 7480 nM and 3900 nM, respectively.
On to `C[C@@H]1CN(C(=O)[C@H]2CN(c3ccncn3)C[C@@H]2c2ccc(F)cc2F)C[C@H](C)[C@@]1(O)c1ccccc1`, for which the Ki is over 10000 nM in [1] and 64 nM on Melanocortin receptor 4 [3]. Further, the EC50 on Melanocortin receptor 5 [4] was over 14000 nM; on Melanocortin receptor 4 [8] it was 4 nM; on Melanocortin receptor 3 [9], 600 nM; in series [11], over 9000 nM. Besides, the maximal effect (Emax) on Melanocortin receptor 3 [5] was 75%.
For `C[C@@H]1CN(C(=O)[C@H]2CN(C3CC3)C[C@@H]2c2ccc(F)cc2F)C[C@H](C)[C@@]1(O)c1ccccc1`, the Ki in series [1] is over 9170 nM; on Melanocortin receptor 4 [3], 290 nM. For the same compound, the intrinsic clearance (microsomal CLint) in [6] came to 342 µL/min/mg. The compound further registered a log distribution coefficient (logD) in series [7] of over 4. Further, the EC50 was 55 nM at Melanocortin receptor 4 [8], over 33300 nM at Melanocortin receptor 3 [9] and over 4910 nM in series [11].

Source of the values: ChEMBL document CHEMBL1156187, “Discovery of a selective small-molecule melanocortin-4 receptor agonist with efficacy in a pilot study of sexual dysfunction in humans” (J Med Chem, 2010).
